Each block holds one compound with its values, some of them ahead of it.
Assays:
[1] = Determination of particle size distribution (Sympatec Helos, wet dispersion unit); type: physicochemical; settings: 5 min ultrasound; for X10%: diameter below which 10% of the particles lie; for X50%: diameter below which 50% of the particles lie; for X90%: diameter below which 90% of the particles lie
Protocol: Determination of particle size distribution. Determination of particle size distribution is performed using a Sympatec Helos instrument fitted with a wet dispersion unit. To produce the dispersion medium 10-25 mg of the active compound product of the compound of formula (I) (micronized or non-micronized) are predispersed with 10 ml of water/1 drop of Tween 20 in a small vessel. The dispersion is stirred but not shaken to avoid foam formation. The dispersed material is subsequently added to the deionized water (approx. 0.51) in the wet dispersion unit, treated with ultrasound for 5 minutes and measured (10 seconds). The sound exposure time is 5 minutes, a 50 mm aperture is employed (R2, or if measurement range exceeded, R3), the optical density of the suspension is 10-25%, the stirring/pumping speed is set to 50% (40-60%) and evaluation is carried out after 5 minutes of ultrasound.
The three columns X10%, X50% and X90% indicate the diameter below which 10%, 50% and 90% respectively of the particles of the analysed active compound product lie.

[2] = ATR IR of the modification after micronization; type: physicochemical
Excerpt: 16.1 kg of methyl {4,6-diamino-2-[5-fluoro-1-(2-fluorobenzyl)-1H-pyrazolo[3,4-b]pyridin-3-yl]pyrimidin-5-yl}carbamate of formula (I) in the crystalline form of modification I, produced according to example 13, method E of WO 2013/076168, were micronized to afford 15.2 kg. The yield was 94.4%. […] The ATR IR diagram corresponds to the IR spectrum of the compound of formula (I) in modification I according to FIG. 1 of WO 2013/076168.
39.0 kg of methyl {4,6-diamino-2-[5-fluoro-1-(2-fluorobenzyl)-1H-pyrazolo[3,4-b]pyridin-3-yl]pyrimidin-5-yl}carbamate of formula (I) in the crystalline form of modification I, produced by the process according to the invention of example 4, were micronized to afford 36.9 kg. The yield was 94.6%.
The ATR IR diagram corresponds to the IR spectrum of the compound of formula (I) in modification I according to FIG. 1 of WO 2013/076168.

SMILES: COC(=O)Nc1c(N)nc(-c2nn(Cc3ccccc3F)c3ncc(F)cc23)nc1N [Batch 2-2]
X10% ([1]; listed as 2-2): 0.9 μm | X50% ([1]; listed as 2-2): 4.2 μm | X90% ([1]; listed as 2-2): 31.9 μm

SMILES: COC(=O)Nc1c(N)nc(-c2nn(Cc3ccccc3F)c3ncc(F)cc23)nc1N [Batch 2-1]
X10% ([1]; listed as 2-1): 1.0 μm | X50% ([1]; listed as 2-1): 11.1 μm | X90% ([1]; listed as 2-1): 43.0 μm

SMILES: COC(=O)Nc1c(N)nc(-c2nn(Cc3ccccc3F)c3ncc(F)cc23)nc1N [Batch 2-3]
X10% ([1]; listed as 2-3): 1.0 μm | X50% ([1]; listed as 2-3): 4.3 μm | X90% ([1]; listed as 2-3): 27.4 μm

SMILES: COC(=O)Nc1c(N)nc(-c2nn(Cc3ccccc3F)c3ncc(F)cc23)nc1N [compound of formula (I), Methyl {4,6-diamino-2-[5-fluoro-1-(2-fluorobenzyl)-1H-pyrazolo[3,4-b]pyridin-3-yl]pyrimidin-5-yl}carbamate]
Modification after micronization ([2]; produced according to example 13, method E of WO 2013/076168, 16.1 kg micronized): remained in modification I even after micronization | Modification after micronization ([2]; produced by the process according to the invention of example 4, 39.0 kg micronized): remained in modification I even after micronization

The remaining lines, values ahead:

X10% ([1]; listed as 2-4): 0.5 μm | X50% ([1]; listed as 2-4): 1.8 μm | X90% ([1]; listed as 2-4): 9.5 μm
SMILES: COC(=O)Nc1c(N)nc(-c2nn(Cc3ccccc3F)c3ncc(F)cc23)nc1N [Batch 2-4]

X10% ([1]; listed as 2-8): 0.6 μm | X50% ([1]; listed as 2-8): 2.6 μm | X90% ([1]; listed as 2-8): 13.6 μm
SMILES: COC(=O)Nc1c(N)nc(-c2nn(Cc3ccccc3F)c3ncc(F)cc23)nc1N [Batch 2-8]

X10% ([1]; listed as 2-6): 1.0 μm | X50% ([1]; listed as 2-6): 9.0 μm | X90% ([1]; listed as 2-6): 34.4 μm
SMILES: COC(=O)Nc1c(N)nc(-c2nn(Cc3ccccc3F)c3ncc(F)cc23)nc1N [Batch 2-6]

X10% ([1]; listed as 2-5): 1.4 μm | X50% ([1]; listed as 2-5): 18.7 μm | X90% ([1]; listed as 2-5): 50.6 μm
SMILES: COC(=O)Nc1c(N)nc(-c2nn(Cc3ccccc3F)c3ncc(F)cc23)nc1N [Batch 2-5]

X10% ([1]; listed as 2-7): 0.6 μm | X50% ([1]; listed as 2-7): 4.1 μm | X90% ([1]; listed as 2-7): 23.6 μm
SMILES: COC(=O)Nc1c(N)nc(-c2nn(Cc3ccccc3F)c3ncc(F)cc23)nc1N [Batch 2-7]
